# Assay results from patent publication US20200323860A1, “METHODS AND MATERIALS FOR TREATING CANCER” (Mayo Foundation for Medical Education and Research, priority 2015, published 2020).
# Assays:
# [1] = tested on: lung normal fibroblast (WI-38 and IMR 90 cells); assay: Growth inhibition of normal lung fibroblasts; format: cell-based, human; details: WI-38 and IMR 90 cells (FIG. 13E and 13F)
# Protocol: (§1) FIG. 13A-13F. […] (A and B) Parkin WT and KO MEFs under various condition were analyzed for foci formation assay, number of cell growth, SA-β-gal staining for senescence, colony formation assay. Cells were infected or treated with the indicated constructs or chemical and stained (A, left). Cells were infected with the indicated constructs and stained (B, left). Quantification of (left panel) with stained cell intensity results represent the means (±S.E.) of three independent experiments performed in triplicate (right). *, p<0.05, **, p<0.01 and ***, p<0.001 by one-way ANOVA. […] Quantification of cell numbers results represent the means (±S.E.) of three independent experiments performed in triplicate. ***, p<0.001 by one-way ANOVA.
# (§2) All cell lines were sourced from commercial venders. […] Three normal lung (2 fibroblasts, IMR-90 and WI-38; 1 epithelial cells; BEAS-2B) cells, six NSCLCs (4 adenocarcinoma, H1437, H522, H1650 and A549; 2 large cell carcinoma, H460 and H1299), and one SCLC (H196) cells were maintained in Eagle's minimal essential media (EMEM, Gibco-Invitrogen, Grand Island, N.Y.). The human lung fibroblast IMR-90 and WI-38 cells were obtained from the American Type Culture Collection (ATCC, Manassas, Va.), and cells ranging from 29 to 34 in population doubling level (PDL) were used. […]
# [2] = tested on: Parkin-deficient lung cancer cell lines; assay: Growth inhibition of Parkin-deficient lung cancer cell lines; format: cell-based, human; details: BI 2536 100 nM or VX-680 50 nM for 72 hours; BI 2536 dose dependent for 3 days (FIG. 13C-13F)
# Protocol: as §1, §2
# Parkin KO MEFs = assay: Transformation and escaped senescence of Parkin KO MEFs (foci formation, cell growth, SA-β-gal staining, colony formation); format: cell-based, mouse; details: FIG. 13A
# Protocol: FIG. 13A-13F. Transformed and escape senescence events in Parkin KO MEFs were reversed by expressing WT Parkin or downregulation of Plk1 but not C431S or S378A, related to FIGS. 6. (A and B) Parkin WT and KO MEFs under various condition were analyzed for foci formation assay, number of cell growth, SA-β-gal staining for senescence, colony formation assay. Cells were infected or treated with the indicated constructs or chemical and stained (A, left). Cells were infected with the indicated constructs and stained (B, left). Quantification of (left panel) with stained cell intensity results represent the means (±S.E.) of three independent experiments performed in triplicate (right). *, p<0.05, **, p<0.01 and ***, p<0.001 by one-way ANOVA. […] Quantification of cell numbers results represent the means (±S.E.) of three independent experiments performed in triplicate. ***, p<0.001 by one-way ANOVA.
# For colony formation or foci assay, early-passage MEFs (passage 5) cells were plated at low density into 60-mm cell culture plates. When sufficient colonies were visible, typically after 2-3 weeks, cells were washed twice in PBS before fixing in ice-cold 70% methanol for 30 minutes, stained by 0.2% Crystal violet for 2-3 hours. The following day cells were rinsed in PBS and air-dried. […]
# [3] = tested on: Parkin phosphorylation at Ser378; assay: Parkin Ser378 phosphorylation in cells, IP and immunoblot with pS378 antibody; format: cell-based
# Protocol: FIGS. 9A-9K. Parkin Is Phosphorylated by Plk1 at Ser378 and Activated during Mitosis. (A) Cells were synchronized at the G1/S transition by double-thymidine block, and cells were released. Cell were harvested at indicated times and analyzed by immunobloting. (B) Cells were incubated in the absence or presence of nocodazole or CCCP and subjected to immunoblot analysis with the indicated antibodies. (C) Comparison of the sequences surrounding 5378 of Parkin orthologues (SEQ ID NOS 42-47, respectively, in order of appearance). […] Immunoprecipitates were incubated with or without λ phosphatase (PPase) and were analyzed by immunobloting with pS378 antibody. (E) Cells were infected with the indicated constructs, synchronized by nocodazole, and released. Parkin phosphorylation at pS378 was then examined by immunoblot analysis. (F) Cells were transfected with indicated plasmids, and Parkin phosphorylation at pS378 was examined. (G) In vitro kinase assay of Parkin by Plk1. Parkin phosphorylation was visualized by pS378 Parkin antibody. (H) Cells were transfected with the indicated plasmids, and then treated with nocodazole. Cell lysates were then blotted with the indicated antibodies. (I) in vitro ubiquitination of Cyclin B1, Securin and Nek2A by WT Parkin and mutants (S65A, S65D, S378A and S378D). […] Samples were analyzed by immunobloting with anti-Cyclin B1, Securin and Nek2A antibody. […]
# [4] = tested on: Parkin KO MEF tumors in nude mice; assay: Mouse xenograft tumor model with Parkin WT or KO MEFs; format: in vivo; details: tumors with Parkin-deficiency, i.v., 20 mg/kg twice weekly, four cycles
# Protocol: FIGS. 11A-11H. Parkin Is A Key Mitotic Regulator Functioning as a Tumor Suppressor. (A) Cells were transfected with the indicated plasmids, and mitotic cells were analyzed by immunoblot for the indicated proteins. (B) Schematic of the experiments. (C) A549 cells stably transfected with doxycycline-inducible constructs encoding WT Parkin or mutant Parkin (S378A and S378D) were treated with doxycycline and subjected to IP and immunoblot as indicated (Top), in vivo ubiquitination (Bottom). (D) Athymic nude mice were injected subcutaneously with A549 cells stably-transfected with vector or doxycycline-inducible Parkin constructs (WT, S378A and S378D). […] Tumor growth was measured at the indicated times after injection. n=5 for each group. […] Tumor volumes (mm^3) were measured at the indicated times after injection (Bottom). *, p<0.05, **, p<0.01 and ***, p<0.001 by two-way ANOVA. […]
# For MEF xenograft experiments, equal numbers (1×10^6 cells) of Parkin WT or KO MEF cells expressing luciferase mixed at a 1:1 dilution with matrigel (Collaborative Research) were implanted in the backs of athymic nude mice. Tumor growth was monitored using calipers and visualized with a bioluminescence-based IVIS system (Caliper LifeScience). […] Tumour growth was measured using a vernier caliper at the indicated times after injection, and the tumor volume was calculated as length×width×height. […]
# [5] = tested on: Parkin WT or KO MEF cells; assay: Sensitivity of Parkin WT or KO MEF cells to BI […], crystal violet staining; format: cell-based, mouse; details: FIG. 11F
# Protocol: (A) Cells were transfected with the indicated plasmids, and mitotic cells were analyzed by immunoblot for the indicated proteins. […] (C) A549 cells stably transfected with doxycycline-inducible constructs encoding WT Parkin or mutant Parkin (S378A and S378D) were treated with doxycycline and subjected to IP and immunoblot as indicated (Top), in vivo ubiquitination (Bottom). (D) Athymic nude mice were injected subcutaneously with A549 cells stably-transfected with vector or doxycycline-inducible Parkin constructs (WT, S378A and S378D). Two days after injection, doxycycline was administered in drinking water. Tumor growth was measured at the indicated times after injection. n=5 for each group. […] Tumor volumes (mm^3) were measured at the indicated times after injection (Bottom). *, p<0.05, **, p<0.01 and ***, p<0.001 by two-way ANOVA. (E) Cells were infected with the indicated constructs and were collected for FACS analysis. […] Results represent the means (±S.E.) of three experiments performed in triplicate. *, p<0.05 and ***, p<0.001 versus Parkin WT MEFs by one-way ANOVA (Right). […] Mean transformed MEFs volumes for Parkin KO are shown. ***, p<0.001 and ****, p<0.0001 versus Parkin WT MEFs by two-way ANOVA.
# For colony formation or foci assay, early-passage MEFs (passage 5) cells were plated at low density into 60-mm cell culture plates. […]
# [6] = tested on: binding of Parkin to Cdc20; assay: Parkin-Cdc20 binding in cells, IP-immunoblot; format: cell-based; details: cells treated with chemical, with or without nocodazole (FIG. 9J)
Structure (SMILES),sensitivity (growth inhibition) of lung normal fibroblasts [1],sensitivity (growth inhibition) of Parkin-deficient lung cancer cell lines [2],escaped senescence and transformation induced by Parkin depletion (Parkin KO MEFs),"Parkin phosphorylation at Ser378 ([3]; nocodazole-arrested mitotic cells, with Plk1 inhibitor (FIG. 9D))",tumor inhibition in vivo [4],transformation of Parkin KO MEFs [5],binding of Parkin to Cdc20 [6],Ser 378 phosphorylation of Parkin ([3]; cells incubated with CCCP (FIG. 9B))
"CC[C@@H]1C(=O)N(C)c2cnc(Nc3ccc(C(=O)NC4CCN(C)CC4)cc3OC)nc2N1C1CCCC1 [BI 2536, (R)-4-(8-cyclopentyl-7-ethyl-5-methyl-6-oxo-5,6,7,8-tetrahydropteridin-2-ylamino)-3-methoxy-N-(1-methylpiperidin-4-yl)benzamide]",but not lung normal fibroblasts,significantly sensitive,transformation was abolished,blocked Parkin phosphorylation at Ser378,excellent tumor inhibition,inhibited transformation of Parkin KO MEFs,decreased binding of Parkin to Cdc20,–
"N#CC(C#N)=NNc1cccc(Cl)c1 [CCCP, carbonyl cyanide m-chlorophenylhydrazone]",–,–,–,–,–,–,–,did not affect Ser 378 phosphorylation
"Cc1cc(Nc2cc(N3CCN(C)CC3)nc(Sc3ccc(NC(=O)C4CC4)cc3)n2)n[nH]1 [VX 680, N-(4-(4-(5-methyl-1H-pyrazol-3-ylamino)-6-(4-methylpiperazin-1-yl)pyrimidin-2-ylthio)phenyl)-cyclopropanecarboxamide]",but not lung normal fibroblasts,significantly sensitive,–,–,–,–,–,–
